Data as given in patent EP2902035B1, “Cell-permeable peptide inhibitors of the JNK signal transduction pathway for use in the treatment of inflammatory eye diseases” (Xigen Inflammation Ltd., priority 2010, dated 2012).

Experiments:
Assay type in all cases: in vivo, Lewis rats
[1] = tested on: polymorphonuclear cells (PMN); assay: Quantification of infiltrating polymorphonuclear cells on histological sections in EIU; settings: IVT injection (SEQ ID NO: 11: 0.2 µg/injection); at 24 hours; mean ± SEM
Protocol: (§1) For immunohistochemistry, eyeballs were collected and fixed for 1h at room temperature in phosphate buffered saline (PBS) containing 4% paraformaldehyde before being rinsed overnight in PBS. The next day, samples were embedded and frozen in optimal cutting-temperature (OCT) compound (Tissue-Tek®, Sakura Finetek, Zoeterwoude, Netherland) and stored at -80°C. Frozen antero-posterior sections of eyes (10 µm thick) were performed at the optic nerve level using a cryostat (Leica CM 3050S, Rueil-Malmaison, France) and mounted on super-frost slides for immunohistochemical analysis.
(§2) A second set of experiment was designed to evaluate the anti-inflammatory effect of the JNK-inhibitor (poly-)peptide of SEQ ID NO: 11 at the cellular and tissue level as well as the biodistribution of this molecule 24 hours after administration. Rats were randomized into 11 experimental groups. 6 groups of rats with uveitis: untreated uveitic rats, rats injected intravenously with NaCl or the JNK-inhibitor (poly-)peptide of SEQ ID NO: 11 and rats injected intravitreously with the vehicle, the JNK-inhibitor (poly-)peptide of SEQ ID NO: 11 or dexamethasone. The 5 additional groups without uveitis were: untreated healthy rats, rats treated by NaCl IV or the JNK-inhibitor (poly-)peptide of SEQ ID NO: 11 IV and rats injected IVT with NaCl or the JNK-inhibitor (poly-)peptide of SEQ ID NO: 11. Three eyes from separate rats were collected per group and used for immunohistochemistry.
(§3) To characterize the cellular infiltrate, sections were double-stained with ED1 and iNOS. […] After staining nuclei with DAPI (Sigma-Aldrich, Saint-Quentin Fallavier, France), sections were mounted in PBS/Glycerol (1/1) and observed by fluorescence photomicroscopy (FXA, Microphot, Nikon, Melville, USA). […] ED1 positive cells and polymorphonuclear cells, identified by the shape of their nuclei stained with DAPI, were quantified on histological sections. […] Results were expressed as mean ± standard error of the mean (SEM).

ED1 positive cells = assay: Quantification of infiltrating ED1 positive cells on histological sections in EIU; settings: IVT injection (SEQ ID NO: 11: 0.2 µg/injection); 24 hours after LPS challenge; mean ± SEM
Protocol: as §1, §2, §3

[2] = tested on: Endotoxin-Induced Uveitis (EIU); assay: Scoring of Endotoxin-Induced Uveitis (EIU) by slit lamp; settings: intravitreous (IVT) administration at LPS challenge (SEQ ID NO: 11: 0.2 µg/injection); scored at 24 hours on a scale from 0 to 5; mean ± SEM
Protocol: For intravenous (IV) injection, 100 µL of saline (NaCl 0.9%) or the JNK-inhibitor (poly-)peptide of SEQ ID NO: 11 (20 µg/kg in saline) were injected in a tail vein using a 25G-needle connected on a 1 mL syringe (Becton Dickinson, France). For intravitreous (IVT) injection, 5 µL of saline or the JNK-inhibitor (poly-)peptide of SEQ ID NO: 11 (0.2 µg/injection in saline) were injected in both eyes using a 30G disposable needle (BD-microfine syringe, nm Médical, Asnière, France). The IV dose of 20 µg/kg (i.e. 3.5 µg/rat in rats weighing 175g) was chosen according to studies showing that the JNK-inhibitor (poly-)peptide of SEQ ID NO: 11 is active at very low doses in other models. For intravitreous injections, the inventors used the minimal dose used in direct ear application after acute noise trauma in patients. This corresponds to 5% of the dose injected intravenously. […]
In a first set of experiment, 70 rats were randomized into 14 experimental groups with 5 rats per group. […] Clinical ocular inflammation was recorded only at 24 hours (see Scoring of Endotoxin-Induced Uveitis (EIU) section). […]
Animals were examined by slit lamp at 24 hours, the clinical peak of the disease in our experiments. The intensity of clinical ocular inflammation was scored on a scale from 0 to 5 for each eye as described previously 10: grade (0) indicates no inflammation; grade (1) indicates the presence of a minimal iris and conjunctival vasodilation but without the observation of flare or cells in the anterior chamber (AC); grade (2) indicates the presence of moderate iris and conjunctival vessel dilation but without evident flare or cells in the AC; grade (3) indicates the presence of intense iris vessels dilation, flare and less than 10 cells per slit lamp field in the AC; grade (4) indicates the presence of more severe clinical signs than grade 3, with more than 10 cells in the AC with or without the formation of a hypopion; grade (5) indicates the presence of intense inflammatory reaction, fibrin formation in the AC and total seclusion of the pupil. […]

Substance: Dexamethasone sodium phosphate
- number of polymorphonuclear cells (PMN) [1]: 42 ± 11
- number of ED1 positive infiltrating cells (ED1 positive cells): 79 ± 15
- EIU clinical scores [2]: 1.8 ± 0.4 A.U.
